{"source": "patent EP4635500A1", "about": "“THERAPEUTIC AGENT FOR BACTERIAL INFECTION” (Sumitomo Pharma Co., Ltd., priority 2022, dated 2024)", "test_system": "Enterobacterales", "assay": "MIC, broth microdilution, CDC/FDA Antibiotic Resistance Isolate Bank (Example 7, Tables 8, 11, 12)", "type": "cell-based", "conditions": "read-out: MIC", "note": "Read-outs that look alike come from different tables or passages of the source."}
{"compound": "CO/N=C(\\C(=O)N[C@@H]1C(=O)N2C(C(=O)[O-])=C(C[n+]3ccn4ncccc43)CS[C@H]12)c1nsc(N)n1", "note": "[Cefozopran, cefozopran]", "values": [{"measurement": "MIC", "setting": "Escherichia coli, KUB No. 5764, AR Bank # 368", "value": 0.06, "unit": "µg/mL"}, {"measurement": "MIC", "setting": "Escherichia coli, KUB No. 5765, AR Bank # 369", "value": 32, "unit": "µg/mL"}, {"measurement": "MIC", "setting": "Escherichia coli, KUB No. 5766, AR Bank # 370", "value": 64, "unit": "µg/mL"}, {"measurement": "MIC", "setting": "Escherichia coli, KUB No. 5767, AR Bank # 371", "value": 32, "unit": "µg/mL"}, {"measurement": "MIC", "setting": "Escherichia coli, KUB No. 5768, AR Bank # 372", "value": "> 64", "unit": "µg/mL"}, {"measurement": "MIC", "setting": "Escherichia coli, KUB No. 5769, AR Bank # 373", "value": 0.5, "unit": "µg/mL"}, {"measurement": "MIC", "setting": "Escherichia coli, KUB No. 5770, AR Bank # 374", "value": 1, "unit": "µg/mL"}, {"measurement": "MIC", "setting": "Escherichia coli, KUB No. 5774, AR Bank # 378", "value": "≤ 0.03", "unit": "µg/mL"}, {"measurement": "MIC", "setting": "Escherichia coli, KUB No. 5779, AR Bank # 433", "value": 16, "unit": "µg/mL"}, {"measurement": "MIC", "setting": "Escherichia coli, KUB No. 5780, AR Bank # 434", "value": 64, "unit": "µg/mL"}, {"measurement": "MIC", "setting": "Escherichia coli, KUB No. 5781, AR Bank # 435", "value": "> 64", "unit": "µg/mL"}, {"measurement": "MIC", "setting": "Escherichia, KUB No. 57, AR Bank # 436 (row cut off)", "value": 1, "unit": "µg/mL"}, {"measurement": "MIC", "setting": "Klebsiella aerogenes, Enterobacter aerogenes, KUB No. 5559, AR Bank # 62", "value": 0.5, "unit": "µg/mL"}, {"measurement": "MIC", "setting": "Klebsiella aerogenes, Enterobacter aerogenes, KUB No. 5571, AR Bank # 74", "value": 0.5, "unit": "µg/mL"}, {"measurement": "MIC", "setting": "Klebsiella aerogenes, Enterobacter aerogenes, KUB No. 5658, AR Bank # 161", "value": 32, "unit": "µg/mL"}, {"measurement": "MIC", "setting": "Klebsiella aerogenes, Enterobacter aerogenes, KUB No. 5777, AR Bank # 431", "value": 4, "unit": "µg/mL"}, {"measurement": "MIC", "setting": "Klebsiella oxytoca, KUB No. 5568, AR Bank # 71", "value": "> 64", "unit": "µg/mL"}, {"measurement": "MIC", "setting": "Klebsiella oxytoca, KUB No. 5644, AR Bank # 147", "value": 1, "unit": "µg/mL"}, {"measurement": "MIC", "setting": "Klebsiella oxytoca, KUB No. 5771, AR Bank # 375", "value": 0.5, "unit": "µg/mL"}, {"measurement": "MIC", "setting": "Klebsiella oxytoca, KUB No. 5776, AR Bank # 380", "value": 32, "unit": "µg/mL"}, {"measurement": "MIC", "setting": "Klebsiella ozaenae, KUB No. 5548, AR Bank# 51", "value": "> 64", "unit": "µg/mL"}, {"measurement": "MIC", "setting": "Klebsiella ozaenae, KUB No. 5593, AR Bank # 96", "value": "> 64", "unit": "µg/mL"}, {"measurement": "MIC", "setting": "Klebsiella pnemnonine, KUB No. 5758, AR Bank # 362", "value": 32, "unit": "µg/mL"}, {"measurement": "MIC", "setting": "Klebsiella pneumoniae, KUB No. 55, AR Bank# 47", "value": "> 64", "unit": "µg/mL"}, {"measurement": "MIC", "setting": "Klebsiella pneumoniae, KUB No. 5531, AR Bank# 34", "value": 4, "unit": "µg/mL"}, {"measurement": "MIC", "setting": "Klebsiella pneumoniae, KUB No. 5536, AR Bank# 39", "value": "> 64", "unit": "µg/mL"}, {"measurement": "MIC", "setting": "Klebsiella pneumoniae, KUB No. 5537, AR Bank# 40", "value": "> 64", "unit": "µg/mL"}, {"measurement": "MIC", "setting": "Klebsiella pneumoniae, KUB No. 5538, AR Bank# 41", "value": "> 64", "unit": "µg/mL"}, {"measurement": "MIC", "setting": "Klebsiella pneumoniae, KUB No. 5540, AR Bank# 43", "value": "> 64", "unit": "µg/mL"}, {"measurement": "MIC", "setting": "Klebsiella pneumoniae, KUB No. 5541, AR Bank# 44", "value": "> 64", "unit": "µg/mL"}, {"measurement": "MIC", "setting": "Klebsiella pneumoniae, KUB No. 5543, AR Bank# 46", "value": "> 64", "unit": "µg/mL"}, {"measurement": "MIC", "setting": "Klebsiella pneumoniae, KUB No. 5546, AR Bank# 49", "value": "> 64", "unit": "µg/mL"}, {"measurement": "MIC", "setting": "Klebsiella pneumoniae, KUB No. 5563, AR Bank # 66", "value": "> 64", "unit": "µg/mL"}, {"measurement": "MIC", "setting": "Klebsiella pneumoniae, KUB No. 5565, AR Bank # 68", "value": "> 64", "unit": "µg/mL"}, {"measurement": "MIC", "setting": "Klebsiella pneumoniae, KUB No. 5572, AR Bank # 75", "value": "> 64", "unit": "µg/mL"}, {"measurement": "MIC", "setting": "Klebsiella pneumoniae, KUB No. 5573, AR Bank # 76", "value": 64, "unit": "µg/mL"}, {"measurement": "MIC", "setting": "Klebsiella pneumoniae, KUB No. 5576, AR Bank # 79", "value": "> 64", "unit": "µg/mL"}, {"measurement": "MIC", "setting": "Klebsiella pneumoniae, KUB No. 5577, AR Bank # 80", "value": "> 64", "unit": "µg/mL"}, {"measurement": "MIC", "setting": "Klebsiella pneumoniae, KUB No. 5584, AR Bank # 87", "value": 32, "unit": "µg/mL"}, {"measurement": "MIC", "setting": "Klebsiella pneumoniae, KUB No. 5594, AR Bank # 97", "value": "> 64", "unit": "µg/mL"}, {"measurement": "MIC", "setting": "Klebsiella pneumoniae, KUB No. 5595, AR Bank # 98", "value": 16, "unit": "µg/mL"}, {"measurement": "MIC", "setting": "Klebsiella pneumoniae, KUB No. 5603, AR Bank # 106", "value": "> 64", "unit": "µg/mL"}, {"measurement": "MIC", "setting": "Klebsiella pneumoniae, KUB No. 5604, AR Bank # 107", "value": "> 64", "unit": "µg/mL"}, {"measurement": "MIC", "setting": "Klebsiella pneumoniae, KUB No. 5606, AR Bank # 109", "value": "> 64", "unit": "µg/mL"}, {"measurement": "MIC", "setting": "Klebsiella pneumoniae, KUB No. 5609, AR Bank # 112", "value": 32, "unit": "µg/mL"}, {"measurement": "MIC", "setting": "Klebsiella pneumoniae, KUB No. 5610, AR Bank # 113", "value": "> 64", "unit": "µg/mL"}, {"measurement": "MIC", "setting": "Klebsiella pneumoniae, KUB No. 5612, AR Bank # 115", "value": 32, "unit": "µg/mL"}, {"measurement": "MIC", "setting": "Klebsiella pneumoniae, KUB No. 5614, AR Bank # 117", "value": "> 64", "unit": "µg/mL"}, {"measurement": "MIC", "setting": "Klebsiella pneumoniae, KUB No. 5617, AR Bank # 120", "value": 32, "unit": "µg/mL"}, {"measurement": "MIC", "setting": "Klebsiella pneumoniae, KUB No. 5622, AR Bank # 125", "value": 32, "unit": "µg/mL"}, {"measurement": "MIC", "setting": "Klebsiella pneumoniae, KUB No. 5623, AR Bank # 126", "value": 64, "unit": "µg/mL"}, {"measurement": "MIC", "setting": "Klebsiella pneumoniae, KUB No. 5626, AR Bank # 129", "value": 32, "unit": "µg/mL"}]}
